These results are taken from patent US20050009840A1 (SUGEN, INC., priority 2003, published 2005).

Structures are written as SMILES.

The term IC50 denotes the point on the concentration scale where inhibition reaches its midpoint.

T1 sequence (P08581 1078-1345 limits assumed): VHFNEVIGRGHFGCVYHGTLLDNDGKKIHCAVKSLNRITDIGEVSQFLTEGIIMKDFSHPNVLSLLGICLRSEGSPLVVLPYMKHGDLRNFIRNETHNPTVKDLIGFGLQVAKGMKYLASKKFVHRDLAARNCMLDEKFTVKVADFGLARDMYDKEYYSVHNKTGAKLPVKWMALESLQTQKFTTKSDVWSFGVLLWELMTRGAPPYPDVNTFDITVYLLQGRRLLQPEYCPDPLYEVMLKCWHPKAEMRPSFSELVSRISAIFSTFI

The experiment addresses T1, Met kinase domain (GST fusion protein) (Homo sapiens, UniProt P08581).
T1 construct: Purified GST fusion protein containing the Met kinase domain
As to the kind of experiment: Met transphosphorylation assay (ELISA, poly(glu-tyr) substrate).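 Note: Cell-free ELISA with plate-bound poly(Glu:Tyr 4:1) phosphorylated by GST-fused Met kinase domain plus ATP and Mn2+, phosphotyrosine detected by anti-phosphotyrosine antibody with HRP and ABTS read-out.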 It is filed as biochemical. Conditions: plain numbers in column Met IC50 (μM) of Table 2; read-out: Met IC50. Background: An ELISA detects its analyte on a solid surface through an enzyme-linked reagent.
Take `Nc1ncc(-c2ccccn2)cc1OCc1ccc(Cl)cc1` [Example I-496, 5′-(4-Chloro-benzyloxy)-[2,3′]bipyridinyl-6′-ylamine]: the half-maximal inhibitory concentration (IC50) was determined as 14 µM.
The figure for `Nc1ncc(-c2cccnc2)cc1OCc1ccc(Cl)cc1` [Example I-497, 5-(4-Chloro-benzyloxy)-[3,3′]bipyridinyl-6-ylamine] is 14.1 µM.
`Nc1ncc(-c2cncnc2)cc1OCc1ccc(Cl)cc1` [Example I-498, 3-(4-Chloro-benzyloxy)-5-pyrimidin-5-yl-pyridin-2-ylamine]: the IC50 is > 20 µM.
As to `Nc1ccc(-c2cnc(N)c(OCc3ccc(Cl)cc3)c2)cn1` [Example I-499, 5-(4-Chloro-benzyloxy)-[3.3═]bipyridinyl-6,6′-diamine], the IC50 is > 20 µM.
Regarding `Nc1ncc(-c2ccccn2)cc1OCc1c(F)ccc(F)c1Cl` [Example I-500, 5′-(2-Chloro-3,6-difluoro-benzyloxy)-[2,3′]bipyridinyl-6′-ylamine], the IC50 came to 1.8 µM.
Regarding `Nc1ncc(-c2ccncc2)cc1OCc1c(F)ccc(F)c1Cl` [Example I-502, 5-(2-Chloro-3,6-difluoro-benzyloxy)-[3,4′]bipyridinyl-6-ylamine], the IC50 was 0.211 µM.
On to `Nc1ncc(-c2cncnc2)cc1OCc1c(F)ccc(F)c1Cl` [Example I-503, 3-(2-Chloro-3,6-dlfluoro-benzyloxy)-5-pyrimidin-5-yl-pyridin-2-ylamine], for which the IC50 is 2.15 µM.
As for `Nc1ccc(-c2cnc(N)c(OCc3c(F)ccc(F)c3Cl)c2)cn1` [Example I-504, 5-(2-Chloro-3,6-difluoro-benzyloxy)-[3,3′]bipyridinyl-6,6′-diamine], the IC50 worked out at 0.209 µM.
Take `Nc1ncc(-c2ccccn2)cc1OCc1c(Cl)cccc1Cl` [Example I-505, 5-′(2,6-Dichloro-benzyloxy)-[2,3′]bipyridinyl-6′-ylamine]: the IC50 came to 2.84 µM.
The figure for `Nc1ncc(-c2cccnc2)cc1OCc1c(Cl)cccc1Cl` [Example I-506, 5-(2,6-Dichloro-benzyloxy)-[3,3′]bipyridinyl-6-ylamine] is 2.71 µM; for `Nc1ncc(-c2ccncc2)cc1OCc1c(Cl)cccc1Cl` [Example I-507, 5-(2,6-Dichloro-benzyloxy)-[3,4′]bipyridinyl-6-ylamine] it is 1.3 µM; for `Nc1ncc(-c2cncnc2)cc1OCc1c(Cl)cccc1Cl` [Example I-508, 3-(2,6-Dichloro-benzyloxy)-pyrimidin-5-yl-pyridin-2-ylamine] it is 10.3 µM.
Consider `Nc1ccc(-c2cnc(N)c(OCc3c(Cl)cccc3Cl)c2)cn1` [Example I-509, 5-(2,6-Dichloro-benzyloxy)-[3,3′]bipyridinyl-6,6′-diamine], for which the IC50 was 0.578 µM.
On to `CC(Oc1cc(-c2ccc(N)nc2)cnc1N)c1c(Cl)ccc(F)c1Cl` (centres unmarked) [Example I-510, 5-[1-(2,6-Dichloro-3-fluoro-phenyl)-ethoxy]-[3,3′]bipyridinyl-6,6′-diamine], for which the half-maximal inhibitory concentration (IC50) is 0.0167 µM.
The value for `CC(Oc1cc(-c2cc(C(=O)N3CCN(C)CC3)ccn2)cnc1N)c1c(Cl)ccc(F)c1Cl` (centres unmarked) [Example I-511, {6′-Amino-5′-[1-(2,6-dichloro-3-fluoro-phenyl)-ethoxy]-[2,3′]bipyridinyl-4-yl}-(4-methyl-piperazin-1-yl)-methanone] was 0.0742 µM.
The value for `CC(Oc1cc(-c2cccc(C(=O)N3CCN(C)CC3)n2)cnc1N)c1c(Cl)ccc(F)c1Cl` (centres unmarked) [Example I-512, {6′-Amino-5′-[1-(2,6-dichloro-3-fluoro-phenyl)-ethoxy]-[2,3′]bipyridinyl-6-yl}-(4-methyl-piperazin-1-yl)-methanone] was 0.0629 µM; that for `CC(Oc1cc(-c2cncc(C(=O)N3CCN(C)CC3)c2)cnc1N)c1c(Cl)ccc(F)c1Cl` (centres unmarked) [Example I-513, {6′-Amino-5′-[1-(2,6-dichloro-3-fluoro-phenyl)-ethoxy]-[3,3′]bipyridinyl-5-yl}-(4-methyl-piperazin-1-yl)-methanone] was 0.034 µM.
The value for `CC(Oc1cc(-c2ccc(C(=O)N3CCN(C)CC3)nc2)cnc1N)c1c(Cl)ccc(F)c1Cl` (centres unmarked) [Example I-514, {6′-Amino-5′-[1-(2,6-dichloro-3-fluoro-phenyl)-ethoxy]-[3,3′]bipyridinyl-6-yl}-(4-methyl-piperazin-1-yl)-methanone] was 0.0213 µM; that for `CC(Oc1cc(-c2ccnc(C(=O)N3CCN(C)CC3)c2)cnc1N)c1c(Cl)ccc(F)c1Cl` (centres unmarked) [Example I-515, {6-Amino-5-[1-(2,6-dichloro-3-fluoro-phenyl)-ethoxy]-[3,4′]bipyridinyl-2′-yl}-(4-methyl-piperazin-1-yl)-methanone] was 0.0387 µM.
`CC(Oc1cc(-c2ccc(N)nc2)cnc1N)c1c(F)ccc(F)c1Cl` (centres unmarked) [Example I-516, 5-[1-(2-Chloro-3,6-difluoro-phenyl)-ethoxy]-[3,3′]bipyridinyl-6,6′-diamine]: the IC50 was determined as 0.0393 µM.
The figure for `CC(Oc1cc(-c2cc(C(=O)N3CCN(C)CC3)ccn2)cnc1N)c1c(F)ccc(F)c1Cl` (centres unmarked) [Example I-518, {6′-Amino-5′-[1-(2-chloro-3,6-difluoro-phenyl)-ethoxy]-[2,3′]bipyridinyl-4-yl}-(4-methyl-piperazin-1-yl)-methanone] is 0.209 µM.
`CC(Oc1cc(-c2cccc(C(=O)N3CCN(C)CC3)n2)cnc1N)c1c(F)ccc(F)c1Cl` (centres unmarked) [Example I-519, {6′-Amino-5′-[1-(2-chloro-3,6-difluoro-phenyl)-ethoxy]-[2,3′]bipyridinyl-6-yl}-(4-methyl-piperazin-1-yl)-methanone]: the IC50 came to 0.466 µM.
As to `CC(Oc1cc(-c2cncc(C(=O)N3CCN(C)CC3)c2)cnc1N)c1c(F)ccc(F)c1Cl` (centres unmarked) [Example I-520, {6′-Amino-5′-[1-(2-chloro-3,6-difluoro-phenyl)-ethoxy]-[3,3′]bipyridinyl-5-yl}-(4-methyl-piperazin-1-yl)-methanone], the IC50 amounted to 0.134 µM.
Consider `CC(Oc1cc(-c2ccc(C(=O)N3CCN(C)CC3)nc2)cnc1N)c1c(F)ccc(F)c1Cl` (centres unmarked) [Example I-521, {6′-Amino-5′-[1-(2-chloro-3,6-difluoro-phenyl)-ethoxy]-[3,3′]bipyridinyl-6-yl}-(4-methyl-piperazin-1-yl)-methanone], for which the IC50 is 0.0716 µM.
The value for `CC(Oc1cc(-c2ccnc(C(=O)N3CCN(C)CC3)c2)cnc1N)c1c(F)ccc(F)c1Cl` (centres unmarked) [Example I-522] was 0.0626 µM.
The value for `CC(Oc1cc(-c2ccccn2)cnc1N)c1c(Cl)ccc(F)c1Cl` (centres unmarked) [Example I-523, 5′-[1-(2,6-Dichloro-3-fluoro-phenyl)-ethoxy]-[2,3′]bipyridinyl-6′-ylamine] was 0.0677 µM; that for `CC(Oc1cc(-c2ccccn2)cnc1N)c1c(F)ccc(F)c1Cl` (centres unmarked) [Example I-524, 5′-[1-(2-Chloro-3,6-difluoro-phenyl)-ethoxy]-[2,3′]bipyridinyl-6′-ylamine] was 0.612 µM.
As to `CC(Oc1cc(-c2cccnc2)cnc1N)c1c(F)ccc(F)c1Cl` (centres unmarked) [Example I-525, 5-[1-(2-Chloro-3,6-difluoro-phenyl)-ethoxy]-[3,3′]bipyridinyl-6-ylamine], the IC50 was 0.0777 µM.
With `CC(Oc1cc(-c2cncnc2)cnc1N)c1c(F)ccc(F)c1Cl` (centres unmarked) [Example I-526, 3-[1-(2-Chloro-3,6-difluoro-phenyl)-ethoxy]-5-pyrimidin-5-yl-pyridin-2-ylamine], the IC50 was determined as 0.552 µM.
The value for `CC(Oc1cc(-c2ccc(C(=O)N3CCN(C)CC3)cn2)cnc1N)c1c(Cl)ccc(F)c1Cl` (centres unmarked) [Example I-527, {6′-Amino-5′-[1-(2,6-dichloro-3-fluoro-phenyl)-ethoxy]-[2,3′]bipyridinyl-5-yl}(4-methyl-piperazin-1-yl)-methanone] was 0.0385 µM; that for `CC(Oc1cc(-c2ccncc2)cnc1N)c1c(F)ccc(F)c1Cl` (centres unmarked) [Example I-528, 5-[1-(2-Chloro-3,6-difluoro-phenyl)-ethoxy]-[3,4′]bipyridinyl-6-ylamine] was 0.0659 µM; that for `CC(Oc1cc(OCc2ccccc2)cnc1N)c1c(F)ccc(F)c1Cl` (centres unmarked) [Example I-529, 5-Benzyloxy-3-[1-(2-chloro-3,6-difluoro-phenyl)-ethoxy]-pyridin-2-ylamine] was 2.58 µM.
For `CCC(CC)COc1cnc(N)c(OC(C)c2c(F)ccc(F)c2Cl)c1` (centres unmarked) [Example I-530, 3-[1-(2-Chloro-3,6-difluoro-phenyl)-ethoxy]-5-(2-ethyl-butoxy)-pyridin-2-ylamine], the IC50 came out at 4.08 µM.
The figure for `CC(C)CCOc1cnc(N)c(OC(C)c2c(F)ccc(F)c2Cl)c1` (centres unmarked) [Example I-531, 3-[1-(2-Chloro-3,6-difluoro-phenyl)-ethoxy]-5-(3-methyl-butoxy)-pyridin-2-ylamine] is 2.4 µM.
The value for `CCCCOc1cnc(N)c(OC(C)c2c(F)ccc(F)c2Cl)c1` (centres unmarked) [Example I-532, 3-[1-(2-Chloro-3,6-difluoro-phenyl)-ethoxy]-5-butoxy-pyridin-2-ylamine] was 1.94 µM.
The figure for `CCCOc1cnc(N)c(OC(C)c2c(F)ccc(F)c2Cl)c1` (centres unmarked) [Example I-533, 3-[1-(2-Chloro-3,6-difluoro-phenyl)-ethoxy]-5-propoxy-pyridin-2-ylamine] is 0.672 µM.
For the compound `CC(Oc1cc(OCC2CCCCC2)cnc1N)c1c(F)ccc(F)c1Cl` (centres unmarked) [Example I-534, 3-[1-(2-Chloro-3,6-difluoro-phenyl)-ethoxy]-5-cyclohexylmethoxy-pyridin-2-ylamine], the IC50 was found to be 5.97 µM.
Consider `CC(Oc1cc(O)cnc1N)c1c(F)ccc(F)c1Cl` (centres unmarked) [Example I-535, 6-Amino-5-[1-(2-chloro-3,6-difluoro-phenyl)-ethoxy]-pyridin-3-ol], for which the IC50 came to 0.54 µM.
The figure for `CC(Oc1cc(OCCC2CCCCC2)cnc1N)c1c(F)ccc(F)c1Cl` (centres unmarked) [Example I-536, 3-[1-(2-Chloro-3,6-diftuoro-phenyl)-ethoxy]-5-(2-cyclohexyl-ethoxy)-pyridin-2-ylamine] is 7.5 µM.
With `CC(C)COc1cnc(N)c(OC(C)c2c(F)ccc(F)c2Cl)c1` (centres unmarked) [Example I-537, 3-[1-(2-Chloro-3,6-difluoro-phenyl)-ethoxy]-5-isobutoxy-pyridin-2-ylamine], the IC50 is 1.2 µM.
Take `CC(Oc1cc(OCCc2ccccc2)cnc1N)c1c(F)ccc(F)c1Cl` (centres unmarked) [Example I-538, 3-[1-(2-Chloro-3,6-difluoro-phenyl)-ethoxy]-5-phenethyloxy-pyridin-2-ylamine]: the IC50 came out at 2.8 µM.
